# Measurements: patent US8563542B2 (Cyclacel Limited, priority 2007, dated 2013)
# Counter-ions that a name gives are not always drawn. Like-named read-outs stand apart in the source and are kept apart here.
# Biological target: PLK1 (Homo sapiens, UniProt P53350)
# Test: PLK1 protein kinase assay (CDC25C phosphorylation, [γ-32P]-ATP)
# Format: biochemical
# Details: for Ki: Table 6
# PLK1, sequence (P53350 whole entry): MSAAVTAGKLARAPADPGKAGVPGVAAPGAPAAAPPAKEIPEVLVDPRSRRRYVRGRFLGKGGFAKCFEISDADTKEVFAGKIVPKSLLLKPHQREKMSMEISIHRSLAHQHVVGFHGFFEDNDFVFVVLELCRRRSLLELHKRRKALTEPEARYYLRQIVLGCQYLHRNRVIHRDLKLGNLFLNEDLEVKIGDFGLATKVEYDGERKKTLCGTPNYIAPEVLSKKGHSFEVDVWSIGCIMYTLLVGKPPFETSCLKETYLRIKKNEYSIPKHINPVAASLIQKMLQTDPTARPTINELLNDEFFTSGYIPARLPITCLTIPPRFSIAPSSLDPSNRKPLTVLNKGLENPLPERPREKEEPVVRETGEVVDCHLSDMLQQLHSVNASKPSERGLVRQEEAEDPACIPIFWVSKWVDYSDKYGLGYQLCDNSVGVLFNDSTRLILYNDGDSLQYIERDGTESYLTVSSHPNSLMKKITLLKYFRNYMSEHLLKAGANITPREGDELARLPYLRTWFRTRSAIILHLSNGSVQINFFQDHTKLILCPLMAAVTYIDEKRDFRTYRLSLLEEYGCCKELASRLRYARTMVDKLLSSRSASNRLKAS
SMILES,"IC50 (Table 1, read-out: PLK1 IC50)",other results
"COc1cc(C(=O)N[C@H]2CC[C@@H](N3CCN(Cc4ccccc4)CC3)CC2)ccc1Nc1ncc2c(n1)N(C1CCCC1)CC1(CC1)C(=O)N2C [Compound 387, N-((cis)-4-(4-benzylpiperazin-1-yl)cyclohexyl)-4-(9′-cyclopentyl-5′-methyl-6′-oxo-5′,6′,8′,9′-tetrahydrospiro[cyclopropane-1,7′-pyrimido[4,5-b][1,4]diazepine]-2′-ylamino)-3-methoxybenzamide]",,"IC50 (Table 3, read-out: PLK1 IC50): 100 to 1000 nM"
"COc1cc(C(=O)N[C@H]2CC[C@H](N3CCOCC3)CC2)ccc1Nc1ncc2c(n1)N(C1CCCC1)CC(C)(C)C(=O)N2C [Compound 388, 4-(9-cyclopentyl-5,7,7-trimethyl-6-oxo-6,7,8,9-tetrahydro-5H-pyrimido[4,5-b][1,4]diazepin-2-ylamino)-3-methoxy-N-((trans)-4-morpholinocyclohexyl)benzamide]",,"IC50 (Table 3, read-out: PLK1 IC50): < 100 nM"
"COc1cc(C(=O)N[C@H]2CC[C@@H](N3CCOCC3)CC2)ccc1Nc1ncc2c(n1)N(C1CCCC1)CC(C)(C)C(=O)N2C [Compound 389, 4-(9-cyclopentyl-5,7,7-trimethyl-6-oxo-6,7,8,9-tetrahydro-5H-pyrimido[4,5-b][1,4]diazepin-2-ylamino)-3-methoxy-N-((cis)-4-morpholinocyclohexyl)benzamide]",,"IC50 (Table 3, read-out: PLK1 IC50): 100 to 1000 nM"
"COc1cc(C(=O)N[C@H]2CC[C@H](N3CCOCC3)CC2)ccc1Nc1ncc2c(n1)N(C1CCCC1)CC1(CC1)C(=O)N2C [Compound 390, 4-(9′-cyclopentyl-5′-methyl-6′-oxo-5′,6′,8′,9′-tetrahydrospiro[cyclopropane-1,7′-pyrimido[4,5-b][1,4]diazepine]-2′-ylamino)-3-methoxy-N-((trans)-4-morpholinocyclohexyl)benzamide]",,"IC50 (Table 3, read-out: PLK1 IC50): < 100 nM"
"COc1cc(C(=O)N[C@H]2CC[C@@H](N3CCOCC3)CC2)ccc1Nc1ncc2c(n1)N(C1CCCC1)CC1(CC1)C(=O)N2C [Compound 391, 4-(9′-cyclopentyl-5′-methyl-6′-oxo-5′,6′,8′,9′-tetrahydrospiro[cyclopropane-1,7′-pyrimido[4,5-b][1,4]diazepine]-2′-ylamino)-3-methoxy-N-((cis)-4-morpholinocyclohexyl)benzamide]",,"IC50 (Table 3, read-out: PLK1 IC50): < 100 nM"
"COc1cc(C(=O)NN2CCCC2)ccc1Nc1ncc2c(n1)N(C1CCCC1)CC1(CC1)C(=O)N2C [Example [I-253] of WO 07/095188, reference compound]",,Ki: < 10 nM
"COc1cc(C(=O)NC2CCN(C)CC2)ccc1Nc1ncc2c(n1)N(C1CCCC1)CC1(CCC1)C(=O)N2C [WO 2007/095188 [I-64], reference compound]",,"IC50 (Table 4, read-out: PLK1 IC50): < 100 nM"
"COc1cc(C(=O)NC2CCN(C)CC2)ccc1Nc1ncc2c(n1)N(C1CCCC1)CC1(CC1)C(=O)N2C [WO 2007/095188 [I-76], reference compound]",,"IC50 (Table 4, read-out: PLK1 IC50): < 100 nM"
"COc1cc(C(=O)NN2CCN(C)CC2)ccc1Nc1ncc2c(n1)N(C1CCCC1)CC1(CC1)C(=O)N2C [[254]•HCl, 4-(9′-cyclopentyl-5′-methyl-6′-oxo-5′,6′,8′,9′-tetrahydrospiro[cyclopropane-1,7′-pyrimido[4,5-b][1,4]diazepine]-2′-ylamino)-3-methoxy-N-(4-methylpiperazin-1-yl)benzamide.HCl]",,Ki: < 10 nM
"COc1cc(C(=O)O)ccc1Nc1ncc2c(n1)N(C1CCCC1)C(C)CC(=O)N2 (stereo not drawn) [compound 3, 4-(9-Cyclopentyl-8-methyl-6-oxo-6,7,8,9-tetrahydro-5H-pyrimido[4,5-b][1,4]diazepin-2-ylamino)-3-methoxy-benzoic acid]",< 10000 nM,
"COc1cc(C(=O)O)ccc1Nc1ncc2c(n1)N(C1CCCC1)C(C)CC(=O)N2C (stereo not drawn) [compound 4, 4-(9-Cyclopentyl-5,8-dimethyl-6-oxo-6,7,8,9-tetrahydro-5H-pyrimido[4,5-b][1,4]diazepin-2-ylamino)-3-methoxy-benzoic acid]",< 10000 nM,
"COc1cc(C(=O)O)ccc1Nc1ncc2c(n1)N(C1CCCCC1)C(C)CC(=O)N2 (stereo not drawn) [compound 5, 4-(9-Cyclohexyl-8-methyl-6-oxo-6,7,8,9-tetrahydro-5H-pyrimido[4,5-b][1,4]diazepin-2-ylamino)-3-methoxy-benzoic acid]",< 10000 nM,
"O=C1CCN(C2CCCCC2)c2nc(Nc3ccc(O)cc3)ncc2N1 [compound 10, 9-Cyclohexyl-2-(4-hydroxy-phenylamino)-5,7,8,9-tetrahydro-pyrimido[4,5-b][1,4]diazepin-6-one]",< 10000 nM,
"CC1CN(C2CCCC2)c2nc(Nc3ccc(O)cc3)ncc2NC1=O (stereo not drawn) [compound 11, 9-Cyclopentyl-2-(4-hydroxy-phenylamino)-7-methyl-5,7,8,9-tetrahydro-pyrimido[4,5-b][1,4]diazepin-6-one]",< 10000 nM,
"CC1CC(=O)N(C)c2cnc(Nc3ccc(O)cc3)nc2N1C1CCCC1 (stereo not drawn) [compound 13, 9-Cyclopentyl-2-(4-hydroxy-phenylamino)-5,8-dimethyl-5,7,8,9-tetrahydro-pyrimido[4,5-b][1,4]diazepin-6-one]",< 10000 nM,
"COc1cc(C(=O)NC2CCN(C)CC2)ccc1Nc1ncc2c(n1)N(C1CCCC1)CC(C)C(=O)N2 (stereo not drawn) [compound 17, 4-(9-Cyclopentyl-7-methyl-6-oxo-6,7,8,9-tetrahydro-5H-pyrimido[4,5-b][1,4]diazepin-2-ylamino)-3-methoxy-N-(1-methyl-piperidin-4-yl)-benzamide]",< 10000 nM,
"COc1cc(C(=O)NC2CCN(C)CC2)ccc1Nc1ncc2c(n1)N(C1CCCC1)C(C(C)C)CC(=O)N2 (stereo not drawn) [compound 19, 4-(9-Cyclopentyl-8-isopropyl-6-oxo-6,7,8,9-tetrahydro-5H-pyrimido[4,5-b][1,4]diazepin-2-ylamino)-3-methoxy-N-(1-methyl-piperidin-4-yl)-benzamide]",< 10000 nM,
"COc1cc(C(=O)NC2CCN(C)CC2)ccc1Nc1ncc2c(n1)N(C1CCCC1)CC(C)C(=O)N2C (stereo not drawn) [compound 20, 4-(9-Cyclopentyl-5,7-dimethyl-6-oxo-6,7,8,9-tetrahydro-5H-pyrimido[4,5-b][1,4]diazepin-2-ylamino)-3-methoxy-N-(1-methyl-piperidin-4-yl)-benzamide]",,IC50: < 100 nM
"CCC(CC)N1CCC(=O)N(C)c2cnc(Nc3ccc(C(=O)NC4CCN(C)CC4)cc3OC)nc21 [compound 24, 4-[9-(1-Ethyl-propyl)-5-methyl-6-oxo-6,7,8,9-tetrahydro-5H-pyrimido[4,5-b][1,4]diazepin-2-ylamino]-3-methoxy-N-(1-methyl-piperidin-4-yl)-benzamide]",< 10000 nM,
"COc1cc(C(=O)NC2CCN(C)CC2)ccc1Nc1ncc2c(n1)N(C1CCCC1)C(C)CC(=O)N2C (stereo not drawn) [compound 33, 4-(9-Cyclopentyl-5,8-dimethyl-6-oxo-6,7,8,9-tetrahydro-5H-pyrimido[4,5-b][1,4]diazepin-2-ylamino)-3-methoxy-N-(1-methyl-piperidin-4-yl)-benzamide]",,IC50: < 1000 nM
"COc1cc(C(=O)NC2CCN(C)CC2)ccc1Nc1ncc2c(n1)N(C1CCCC1)C(C)CC(=O)N2 (stereo not drawn) [compound 34, 4-(9-Cyclopentyl-8-methyl-6-oxo-6,7,8,9-tetrahydro-5H-pyrimido[4,5-b][1,4]diazepin-2-ylamino)-3-methoxy-N-(1-methyl-piperidin-4-yl)-benzamide]",< 1000 nM,
"COc1cc(C(=O)NC2CCN(C)CC2)ccc1Nc1ncc2c(n1)N(C1CCCCC1)C(C)CC(=O)N2 (stereo not drawn) [compound 35, 4-(9-Cyclohexyl-8-methyl-6-oxo-6,7,8,9-tetrahydro-5H-pyrimido[4,5-b][1,4]diazepin-2-ylamino)-3-methoxy-N-(1-methyl-piperidin-4-yl)-benzamide]",< 1000 nM,
"CC1CC(=O)Nc2cnc(Nc3ccc(C(=O)NC4CCN(C)CC4)cc3)nc2N1C1CCCC1 (stereo not drawn) [compound 38, 4-(9-Cyclopentyl-8-methyl-6-oxo-6,7,8,9-tetrahydro-5H-pyrimido[4,5-b][1,4]diazepin-2-ylamino)-N-(1-methyl-piperidin-4-yl)-benzamide]",< 1000 nM,

# Now from value to compound, other results behind:
"IC50 (Table 1, read-out: PLK1 IC50)",SMILES,other results
< 10000 nM,"COc1cc(C(=O)NC2CCN(C)CC2)ccc1Nc1ncc2c(n1)N(C1CCCC1)C(C(C)C)CC(=O)N2C (stereo not drawn) [compound 23, 4-(9-Cyclopentyl-8-isopropyl-5-methyl-6-oxo-6,7,8,9-tetrahydro-5H-pyrimido[4,5-b][1,4]diazepin-2-ylamino)-3-methoxy-N-(1-methyl-piperidin-4-yl)-benzamide]",
< 1000 nM,"COc1cc(C(=O)NC2CCN(C)CC2)ccc1Nc1ncc2c(n1)N(C1CCOCC1)CCC(=O)N2C [compound 26, 3-Methoxy-4-[5-methyl-6-oxo-9-(tetrahydro-pyran-4-yl)-6,7,8,9-tetrahydro-5H-pyrimido[4,5-b][1,4]diazepin-2-ylamino]-N-(1-methyl-piperidin-4-yl)-benzamide]",
< 1000 nM,"CCN1C(=O)C(C)CN(C2CCCC2)c2nc(Nc3ccc(C(=O)NC4CCN(C)CC4)cc3OC)ncc21 (stereo not drawn) [compound 28, 4-(9-Cyclopentyl-5-ethyl-7-methyl-6-oxo-6,7,8,9-tetrahydro-5H-pyrimido[4,5-b][1,4]diazepin-2-ylamino)-3-methoxy-N-(1-methyl-piperidin-4-yl)-benzamide]",
< 10000 nM,"COc1cc(C(=O)NC2CCN(C)CC2)ccc1Nc1ncc2c(n1)N(Cc1ccccc1)CCC(=O)N2C [compound 29, 4-(9-Benzyl-5-methyl-6-oxo-6,7,8,9-tetrahydro-5H-pyrimido[4,5-b][1,4]diazepin-2-ylamino)-3-methoxy-N-(1-methyl-piperidin-4-yl)-benzamide]",
< 1000 nM,"COc1cc(C(=O)NC2CCN(C)CC2)ccc1Nc1ncc2c(n1)N(c1ccccc1)CCC(=O)N2C [compound 30, 3-Methoxy-4-(5-methyl-6-oxo-9-phenyl-6,7,8,9-tetrahydro-5H-pyrimido[4,5-b][1,4]diazepin-2-ylamino)-N-(1-methyl-piperidin-4-yl)-benzamide]",
< 100 nM,COc1cc(C(=O)NC2CCN(C)CC2)ccc1Nc1ncc2c(n1)N(C1CCCC1)CC1(CC1)C(=O)N2C [compound 31],
< 10000 nM,"COc1cc(C(=O)NC2CCN(C)CC2)ccc1Nc1ncc2c(n1)N(C1CCCC1)CCC(=O)N2 [compound 36, 4-(9-Cyclopentyl-6-oxo-6,7,8,9-tetrahydro-5H-pyrimido[4,5-b][1,4]diazepin-2-ylamino)-3-methoxy-N-(1-methyl-piperidin-4-yl)-benzamide]",
